{"source": "paper PMC12114840", "about": "“Exploring the Anticancer Properties of 1,2,3-Triazole-Substituted Andrographolide Derivatives” (Pharmaceuticals, 2025)", "key": {"PANC-1 cells [1]": {"test_system": "PANC-1 cells", "experiment": "Scratch (wound healing) assay", "format": "cell-based, human", "conditions": "PANC-1, 1.35 µM, 6 h and 24 h", "source_text": "Metastasis remains the greatest challenge in the clinical management of cancer. Cell migration is a key process that, during the whole cascade of cancer development, contributes to tumor invasion and metastasis. The scratch assay is a common in vitro technique used to assess two-dimensional cell migration and motility. It involves creating an artificial scratch or “wound” in a confluent monolayer of cells and then monitoring the progression of the wound over time. Therefore, a wound healing assay was used to evaluate the effect of compound 12 on the cell migration ability of PANC-1 cells.\nTotals of 6 × 10^5 PANC-1 cells/well were grown to confluence in 6-well plates, and a fixed-width wound was created in the cell monolayer using a sterile 10 µL micropipette tip. Cells were treated with DMSO or 1.35 µM of compound 12 and images of the wound were captured at different time points (0, 6, and 24 h) using an inverted NIKON TE 2000-U microscope from Nikon Instruments Inc. (Izasa, Carnaxide, Portugal) at 100× magnification with a DXM1200F digital camera (Nikon Instruments Inc., Amstelveen, The Netherlands) and NIS-Elements microscope imaging software (version 4; Nikon Instruments Inc.). Wound closure was calculated by subtracting the wound area (measured using Fiji Software, version 1.54f) at the indicated time point of treatment from the wound area at the starting point (0 h)."}, "[2]": {"test_system": "HCT116 cells (colorectal adenocarcinoma)", "experiment": "Sulforhodamine B (SRB) antiproliferative assay, HCT116", "format": "cell-based", "conditions": "Homo sapiens, HCT-116, HCT116, 48 h, mean ± SEM of four to six independent experiments", "protocol": "(§1) The antiproliferative properties of andrographolide and all prepared derivatives (2–26) were evaluated against a panel of different cancer cell lines, including human pancreatic ductal adenocarcinoma (PANC-1), colorectal adenocarcinoma (HCT116), melanoma (A375), breast adenocarcinoma (MCF-7) and a non-tumorigenic colon (CCD-18Co) cell line using the sulforhodamine B assay.\n(§2) Human breast adenocarcinoma MCF-7, pancreatic ductal adenocarcinoma PANC-1, melanoma A375, and non-tumorigenic colon CCD-18Co cell lines were purchased from ATCC (Rockville, MD, USA). Human colorectal adenocarcinoma HCT116 cells were kindly provided by B. Vogelstein (The Johns Hopkins Kimmel Cancer Center, Baltimore, MD, USA). Tumor cells were routinely cultured in RPMI-1640 medium with UltraGlutamine from Biowest (VWR, Carnaxide, Portugal) supplemented with 10% fetal bovine serum (FBS) from Biowest (VWR, Carnaxide, Portugal), except for the PANC-1 cells, which were grown in DMEM (4.5 g/L glucose) with stable L-glutamine and sodium pyruvate and supplemented with 10% FBS. The non-tumorigenic CCD-18Co cells were cultured in EMEM (Lonza, VWR, Carnaxide, Portugal), supplemented with 10% FBS. All cells were incubated at 37 °C in a humidified atmosphere of 5% CO2. Routine mycoplasma testing was performed using the MycoAlert™ PLUS mycoplasma detection kit (Lonza).\n(§3) For the evaluation of the compound effect on cell proliferation, human cell lines were seeded in 96-well plates at a density of 5.0 × 10^3 (HCT116, MCF-7, PANC-1, A375, and CCD-18Co) cells per well, for 24 h. Cells were then treated with serial dilutions of the compound (ranging from 0.63 to 30 µM), for an additional 48 h incubation period. The growth inhibitory effects were assessed by SRB assay, as described in [58], and the half-maximal inhibitory concentration (IC50 values) were determined for each cell line using the GraphPad Prism software version 7.0 (La Jolla, CA, USA). Culture medium containing a maximum of 0.05% dimethyl sulfoxide (DMSO) was used as negative control."}, "PANC-1 cells [3]": {"test_system": "PANC-1 cells", "experiment": "Drug combination assay with 5-fluorouracil (SRB, CompuSyn)", "format": "cell-based, human", "conditions": "PANC-1, 48 h", "experimental": "Using the CompuSyn software (version 1.0), a multiple drug effect analysis was performed for each combination, to determine combination index (CI) and dose-reduction index (DRI) values. CI values indicate the effect of combining multiple drugs as synergistic (CI < 1), additive (CI = 1), or antagonistic (CI > 1). DRI values represent the fold decrease in the dose of a drug needed when in combination to achieve the same efficacy as the drug alone. DRI values > 1 are favorable given the concern for toxicity when combining multiple drugs.\nThe effect on cell proliferation was analyzed by SRB assay. […] Synergistic interactions of drugs were indicated as CI < 1, antagonist interactions as CI > 1.1, and additive effects as 1 < CI < 1.1."}, "[4]": {"test_system": "MCF-7 cells (breast adenocarcinoma)", "experiment": "Sulforhodamine B (SRB) antiproliferative assay, MCF-7", "format": "cell-based", "conditions": "Homo sapiens, MCF7, MCF-7, 48 h, mean ± SEM of four to six independent experiments", "protocol": "as §1, §2, §3"}, "[5]": {"test_system": "PANC-1 cells (pancreatic ductal adenocarcinoma)", "experiment": "Sulforhodamine B (SRB) antiproliferative assay, PANC-1", "format": "cell-based, human", "protocol": "as §1, §2, §3"}, "A375 cells (melanoma)": {"test_system": "A375 cells (melanoma)", "experiment": "Sulforhodamine B (SRB) antiproliferative assay, A375", "format": "cell-based", "conditions": "Homo sapiens, A-375, A375, 48 h, mean ± SEM of four to six independent experiments", "protocol": "as §1, §2, §3"}}}
{"smiles": "C=C1CC[C@@H]2[C@](C)(COC(C)=O)[C@H](OC(C)=O)CC[C@@]2(C)[C@@H]1C[C@H](C1=CCOC1=O)n1cc(-c2ccc(Br)cc2)nn1", "note": "[Compound 12, (12R)-4-bromophenyl-1,2,3-triazole-3,19-diacetoxy-14-deoxy-andrographolide]", "values": [{"measurement": "wound closure compared to control", "setting": "PANC-1 cells [1]", "value": "significantly reduced the wound closure"}, {"measurement": "IC50", "setting": "[2]", "value": "1.7 ± 0.2", "unit": "µM"}, {"measurement": "combination index (CI)", "setting": "PANC-1 cells [3]; 5-FU 3.75 µM + 1.35 µM of compound 12", "value": 0.87}, {"measurement": "combination index (CI)", "setting": "PANC-1 cells [3]; 5-FU 7.5 µM + 1.35 µM of compound 12", "value": 0.90}, {"measurement": "IC50", "setting": "[4]", "value": "6.8 ± 0.3", "unit": "µM"}, {"measurement": "IC50", "setting": "[5]; Homo sapiens, PANC-1, 48 h, SRB, mean ± SEM of four to six independent experiments", "value": "3.4 ± 0.9", "unit": "µM"}, {"measurement": "IC10", "setting": "[5]; PANC-1, concentration which has no significant effect on cell proliferation", "value": 1350, "unit": "nM"}, {"measurement": "IC50", "setting": "A375 cells (melanoma)", "value": 1.7, "unit": "µM"}]}
